On the set-up of series [1]: species or system male white mice (CF1). Conditions: mouse, in vivo; for ED50 (effective analgesic dose in 50% of the mice), p.o.: po; for ED50 (effective analgesic dose in 50% of the mice), s.c.: sc.
Series [2] has as its system kappa receptor. The conditions noted are these: rat, in vivo; cited from earlier work.
The subject of series [3] is kappa receptor. The conditions noted are these: rat, in vivo.

Read-outs that look alike come from different tables or passages of the source.

In the case of `CN(C(=O)Cc1ccc(Br)cc1)[C@@H]1c2ccccc2CC[C@H]1N1CCCC1` (relative stereo) [Example 10], in series [1], the “ED50 (effective analgesic dose in 50% of the mice), p.o.” value was 54. mg/kg and the “ED50 (effective analgesic dose in 50% of the mice), s.c.” value is given as 8.1 mg/kg.

Take `CN(C(=O)Cc1ccccc1)[C@@H]1c2ccccc2CC[C@H]1N1CCCC1` (relative stereo) [Example 11]: in series [1], the “ED50 (effective analgesic dose in 50% of the mice), p.o.” value is > 81. mg/kg and the “ED50 (effective analgesic dose in 50% of the mice), s.c.” value is given as 30. mg/kg.

With `CN(C(=O)Cc1ccccc1)[C@@H]1c2ccccc2OC[C@H]1N1CCCC1.Cl` (relative stereo) [Example 19, trans-N-methyl-N-[3,4-dihydro-3-(pyrrolidin-1-yl)-2H-benzopyran-4-yl]benzeneacetamide hydrochloride], in series [1], the “ED50 (effective analgesic dose in 50% of the mice), p.o.” value amounted to 36. mg/kg and the “ED50 (effective analgesic dose in 50% of the mice), s.c.” value worked out at 1.7 mg/kg.

For `CN(C(=O)Cc1ccc(Cl)c(Cl)c1)[C@@H]1c2ccccc2OC[C@H]1N1CCCC1` (relative stereo) [Example 7, trans-3,4-Dichloro-N-methyl-N-[3,4-dihydro-3-(pyrrolidin-1-yl)-2H-benzopyran-4-yl]benzeneacetamide], in series [1], the “ED50 (effective analgesic dose in 50% of the mice), p.o.” value came to 36 mg/kg and the “ED50 (effective analgesic dose in 50% of the mice), s.c.” value is reported as 1.7 mg/kg.

For the compound `CN(C(=O)Cc1ccc(Cl)c(Cl)c1)[C@@H]1c2c(ccc3ccccc23)CC[C@H]1N1CCCC1` (relative stereo) [Example 69], in series [1], the “ED50 (effective analgesic dose in 50% of the mice), p.o.” value came out at 16. mg/kg and the “ED50 (effective analgesic dose in 50% of the mice), s.c.” value turned out to be 3.0 mg/kg.

In the case of `CN(C)C(=S)Oc1cccc2c1CC[C@@H](N1CCCC1)[C@@H]2N(C)C(=O)Cc1ccc(Cl)c(Cl)c1.Cl` (relative stereo) [Example 68, trans-3,4-dichloro-N-methyl-N-[2-(pyrrolidin-1-yl)-5-(N,N-dimethylthiocarbamoyloxy)-1,2,3,4-tetrahydronaphth-1-yl]benzeneacetamide hydrochloride], in series [1], the “ED50 (effective analgesic dose in 50% of the mice), p.o.” value stood at 18. mg/kg and the “ED50 (effective analgesic dose in 50% of the mice), s.c.” value is given as 1.7 mg/kg.

Regarding `COc1cccc2c1CC[C@@H](N1CC=CC1)[C@@H]2N(C)C(=O)Cc1ccc(Cl)c(Cl)c1.Cl` (relative stereo) [Example 50, trans-3,4-dichloro-N-methyl-N-[2-(2,5-dihydro-1H-pyrrol-1-yl)-5-methoxy-1,2,3,4-tetrahydronaphth-1-yl]benzeneacetamide hydrochloride], in series [1], the “ED50 (effective analgesic dose in 50% of the mice), p.o.” value is 3.4 mg/kg and the “ED50 (effective analgesic dose in 50% of the mice), s.c.” value is reported as 0.24 mg/kg.

Turning to `COCc1c(O)ccc2c1CC[C@@H](N1CCCC1)[C@@H]2N(C)C(=O)Cc1ccc(Cl)c(Cl)c1` (relative stereo) [Example 25], in series [1], the “ED50 (effective analgesic dose in 50% of the mice), p.o.” value turned out to be 54. mg/kg and the “ED50 (effective analgesic dose in 50% of the mice), s.c.” value is recorded as 0.19 mg/kg.

Regarding `CN(C(=O)Cc1ccc(Cl)c(Cl)c1)[C@@H]1c2cccc(OC(=O)c3ccccc3)c2CC[C@H]1N1CCCC1.Cl` (relative stereo) [Example 16, trans-3,4-dichloro-N-methyl-N-[2-(pyrrolidin-1-yl)-5-benzoyloxy-1,2,3,4-tetrahydronaphth-1-yl]benzeneacetamide hydrochloride], in series [1], the “ED50 (effective analgesic dose in 50% of the mice), p.o.” value came out at 10. mg/kg and the “ED50 (effective analgesic dose in 50% of the mice), s.c.” value was 0.71 mg/kg.

Consider `CN1CC[C@]23c4c5ccc(O)c4O[C@H]2[C@@H](O)C=C[C@H]3[C@H]1C5` [Morphine], for which the “increase in urine flow, in words” value in the series with kappa receptor [2] is listed as “largely devoid of this property”. In series [1], the “ED50 (effective analgesic dose in 50% of the mice), p.o.” value turned out to be 3.8 mg/kg and the “ED50 (effective analgesic dose in 50% of the mice), s.c.” value worked out at 1.0 mg/kg. Further, in the series on kappa receptor [3], the “% increase over control (urine output)” value was 48%; the “increase in urine flow / diuresis, in words” value was “minimal or no diuresis”; the “mean cumulative urine output at 5 hours” value is 1.38 mL. In addition, in the series on kappa receptor [3] (sc), the “% increase over control (urine output)” value came out at 159%, the “mean cumulative urine output at 5 hours” value was found to be 2.41 mL and the toxicity / deaths entry is given as “Toxic (2/8 dead)”.

`COc1cccc2c1OC[C@@H](N1CCCC1)[C@@H]2N(C)C(=O)Cc1ccc(Cl)c(Cl)c1.Cl` (relative stereo) [Example 20, trans-3,4-dichloro-N-methyl-N-[3,4-dihydro-8-methoxy-3-(pyrrolidin-1-yl)-2H-benzopyran-4yl]benzeneacetamide hydrochloride]: in series [1], the “ED50 (effective analgesic dose in 50% of the mice), p.o.” value was found to be 30. mg/kg and the “ED50 (effective analgesic dose in 50% of the mice), s.c.” value stood at 1.2 mg/kg.

For `CN(C(=O)Cc1ccc(C(F)(F)F)cc1)[C@@H]1c2ccccc2CC[C@H]1N1CCCC1` (relative stereo) [Example 12], in series [1], the “ED50 (effective analgesic dose in 50% of the mice), p.o.” value worked out at 54. mg/kg and the “ED50 (effective analgesic dose in 50% of the mice), s.c.” value is reported as 19. mg/kg.

On to `COCOc1cccc2c1CC[C@@H](N1CCCC1)[C@@H]2N(C)C(=O)Cc1ccc(Cl)c(Cl)c1` (relative stereo) [Example 48], for which, in series [1], the “ED50 (effective analgesic dose in 50% of the mice), p.o.” value is reported as 13. mg/kg and the “ED50 (effective analgesic dose in 50% of the mice), s.c.” value was determined as 4.5 mg/kg.

Source of the values: patent US4876269A (priority 1987, dated 1989).
